Measured values reported in paper PMC10866072, “Design, synthesis, molecular modelling and biological evaluation of novel 6-amino-5-cyano-2-thiopyrimidine derivatives as potent anticancer agents against leukemia and apoptotic inducers” (Journal of Enzyme Inhibition and Medicinal Chemistry, 2024).

How the values were obtained:
[1] = system: CCRF-CEM; format: cell-based; conditions: one dose 10^-5 M, 48 h
[2] = system: HL-60(TB); format: cell-based; conditions: one dose 10^-5 M, 48 h
[3] = system: K-562; format: cell-based; conditions: 48 h
[4] = system: MOLT-4; format: cell-based; conditions: one dose 10^-5 M, 48 h
[5] = system: RPMI-8226; format: cell-based; conditions: one dose 10^-5 M, 48 h
[6] = system: SR; format: cell-based; conditions: one dose 10^-5 M, 48 h
[7] = system: A549/ATCC; format: cell-based; conditions: one dose 10^-5 M, 48 h
[8] = system: EKVX; format: cell-based; conditions: one dose 10^-5 M, 48 h
[9] = system: HOP-62; format: cell-based; conditions: one dose 10^-5 M, 48 h
[10] = system: HOP-92; format: cell-based; conditions: one dose 10^-5 M, 48 h
[11] = system: NCI-H226; format: cell-based; conditions: one dose 10^-5 M, 48 h
[12] = system: NCI-H23; format: cell-based; conditions: one dose 10^-5 M, 48 h
[13] = system: NCI-H460; format: cell-based; conditions: one dose 10^-5 M, 48 h
[14] = system: NCI-H522; format: cell-based; conditions: one dose 10^-5 M, 48 h
[15] = system: COLO 205; format: cell-based; conditions: one dose 10^-5 M, 48 h
[16] = system: HCC-2998; format: cell-based; conditions: one dose 10^-5 M, 48 h
[17] = system: HCT-116; format: cell-based; conditions: one dose 10^-5 M, 48 h
[18] = system: HCT-15; format: cell-based; conditions: one dose 10^-5 M, 48 h
[19] = system: HT29; format: cell-based; conditions: 48 h
[20] = system: KM12; format: cell-based; conditions: one dose 10^-5 M, 48 h
[21] = system: SW-620; format: cell-based; conditions: one dose 10^-5 M, 48 h
[22] = system: SF-268; format: cell-based; conditions: one dose 10^-5 M, 48 h
[23] = system: SF-295; format: cell-based; conditions: one dose 10^-5 M, 48 h
[24] = system: SF-539; format: cell-based; conditions: one dose 10^-5 M, 48 h
[25] = system: SNB-19; format: cell-based; conditions: one dose 10^-5 M, 48 h
[26] = system: SNB-75; format: cell-based; conditions: one dose 10^-5 M, 48 h
[27] = system: U251; format: cell-based; conditions: 48 h
[28] = system: LOX IMVI; format: cell-based; conditions: one dose 10^-5 M, 48 h
[29] = system: MALME-3M; format: cell-based; conditions: one dose 10^-5 M, 48 h
[30] = system: M14; format: cell-based; conditions: one dose 10^-5 M, 48 h
[31] = system: MDA-MB-435; format: cell-based; conditions: one dose 10^-5 M, 48 h
[32] = system: SK-MEL-2; format: cell-based; conditions: one dose 10^-5 M, 48 h
[33] = system: SK-MEL-28; format: cell-based; conditions: one dose 10^-5 M, 48 h
[34] = system: SK-MEL-5; format: cell-based; conditions: one dose 10^-5 M, 48 h
[35] = system: UACC-257; format: cell-based; conditions: one dose 10^-5 M, 48 h
[36] = system: UACC-62; format: cell-based; conditions: one dose 10^-5 M, 48 h
[37] = system: IGROV1; format: cell-based; conditions: 48 h
[38] = system: OVCAR-3; format: cell-based; conditions: one dose 10^-5 M, 48 h
[39] = system: OVCAR-4; format: cell-based; conditions: one dose 10^-5 M, 48 h
[40] = system: OVCAR-5; format: cell-based; conditions: one dose 10^-5 M, 48 h
[41] = system: OVCAR-8; format: cell-based; conditions: one dose 10^-5 M, 48 h
[42] = system: NCI/ADR-RES; format: cell-based; conditions: one dose 10^-5 M, 48 h
[43] = system: SK-OV-3; format: cell-based; conditions: one dose 10^-5 M, 48 h
[44] = system: 786-0; format: cell-based; conditions: one dose 10^-5 M, 48 h
[45] = system: A498; format: cell-based; conditions: one dose 10^-5 M, 48 h
[46] = system: ACHN; format: cell-based; conditions: one dose 10^-5 M, 48 h
[47] = system: CAKI-1; format: cell-based; conditions: one dose 10^-5 M, 48 h
[48] = system: SN12C; format: cell-based, human; conditions: one dose 10^-5 M, 48 h
[49] = system: TK-10; format: cell-based; conditions: one dose 10^-5 M, 48 h
[50] = system: UO-31; format: cell-based; conditions: one dose 10^-5 M, 48 h
[51] = system: PC-3; format: cell-based; conditions: one dose 10^-5 M, 48 h
[52] = system: DU-145; format: cell-based; conditions: one dose 10^-5 M, 48 h
[53] = system: MCF7; format: cell-based; conditions: one dose 10^-5 M, 48 h
[54] = system: MDA-MB-231/ATCC; format: cell-based; conditions: one dose 10^-5 M, 48 h
[55] = system: HS 578T; format: cell-based; conditions: one dose 10^-5 M, 48 h, HS 578T
[56] = system: BT-549; format: cell-based; conditions: one dose 10^-5 M, 48 h
[57] = system: T-47D; format: cell-based; conditions: one dose 10^-5 M, 48 h
[58] = system: MDA-MB-468; format: cell-based; conditions: one dose 10^-5 M, 48 h
[59] = system: full NCI 60 cell lines panel; conditions: for activity on all 60 cancer cell lines tested (in words): one dose
[60] = Homo sapiens, read-out: % growth

4-Amino-6-[4-(dimethylamino)phenyl]-2-mercaptopyrimidine-5-carboximidohydrazide [Compound 2a]
% growth [1]: 91.59% | % growth [2]: 99.62% | % growth ([3]; one dose 10^-5 M): 103.46% | % growth [4]: 109.54% | % growth [5]: 98.02% | % growth [6]: 102.70% | % growth [7]: 107.34% | % growth [8]: 95.76% | % growth [9]: 107.78% | % growth [10]: 114.12% | % growth [11]: 96.50% | % growth [12]: 104.78% | % growth [13]: 102.69% | % growth [14]: 100.34% | % growth [15]: 134.76% | % growth [16]: 114.82% | % growth [17]: 103.97% | % growth [18]: 103.47% | % growth ([19]; one dose 10^-5 M): 107.55% | % growth [20]: 103.89% | % growth [21]: 105.68% | % growth [22]: 101.57% | % growth [23]: 112.06% | % growth [24]: 107.89% | % growth [25]: 101.46% | % growth [26]: 115.82% | % growth ([27]; one dose 10^-5 M): 106.99% | % growth [28]: 101.99% | % growth [29]: 100.97% | % growth [30]: 103.05% | % growth [31]: 114.53% | % growth [32]: 117.18% | % growth [33]: 108.97% | % growth [34]: 104.41% | % growth [35]: 109.40% | % growth [36]: 96.91% | % growth ([37]; one dose 10^-5 M): 109.01% | % growth [38]: 105.79% | % growth [39]: 96.78% | % growth [40]: 116.97% | % growth [41]: 116.82% | % growth [42]: 104.56% | % growth [43]: 120.70% | % growth [44]: 105.86% | % growth [45]: 129.90% | % growth [46]: 99.26% | % growth [47]: 93.33% | % growth [48]: 106.67% | % growth [49]: 112.54% | % growth [50]: 69.66% | % growth [51]: 87.24% | % growth [52]: 111.10% | % growth [53]: 86.35% | % growth [54]: 103.57% | % growth [55]: 111.82% | % growth [56]: 106.15% | % growth [57]: 99.52% | % growth [58]: 117.68% | activity on all 60 cancer cell lines tested (in words) [59]: weak activity | Mean % growth ([59]; one dose 10^-5 M, 48 h, mean over all cell lines): 105.50%

CN(C)c1ccc(-c2nc(S)nc(N)c2C(=N)NN=Cc2ccc(Br)cc2)cc1 [Compound 4e, 4-amino-N'-[(4-bromophenyl)methylene]-6-[4-(dimethylamino)phenyl]-2-mercapto pyrimidine-5-carboximidohydrazide]
% cell growth at 10 µM ([1]; Homo sapiens): 88.8% | % growth at 10 µM ([2]; Homo sapiens): 91.6% | % growth at 10 µM ([3]; Homo sapiens, K562, one dose 10^-5 M): 99.6% | activity at 10 µM [4, 60]: 103% | % growth at 10 µM ([5]; Homo sapiens): 84.4% | percent cell growth at 10 µM ([6]; Homo sapiens): 91.5% | % growth at 10 µM ([7]; Homo sapiens): 108% | % cell growth at 10 µM ([8]; Homo sapiens): 98.6% | % growth at 10 µM ([9]; Homo sapiens): 108% | % growth at 10 µM ([10]; Homo sapiens): 112% | % growth at 10 µM ([11]; Homo sapiens): 95.7% | activity at 10 µM [12, 60]: 99.3% | activity at 10 µM [13, 60]: 107% | % growth at 10 µM ([14]; Homo sapiens): 98.5% | % growth at 10 µM ([15]; Homo sapiens): 161% | % growth at 10 µM ([16]; Homo sapiens): 112% | activity at 10 µM [17, 60]: 101% | activity at 10 µM [18, 60]: 102% | % growth at 10 µM ([19]; Homo sapiens, HT-29, one dose 10^-5 M): 104% | % growth at 10 µM ([20]; Homo sapiens): 110% | % growth at 10 µM ([21]; Homo sapiens): 107% | activity at 10 µM [22, 60]: 101% | % cell growth at 10 µM ([23]; Homo sapiens): 104% | % growth at 10 µM ([24]; Homo sapiens): 101% | activity at 10 µM [25, 60]: 99.4% | % growth at 10 µM ([26]; Homo sapiens): 114% | % growth at 10 µM ([27]; Homo sapiens, U-251, one dose 10^-5 M): 112% | activity at 10 µM [28, 60]: 98.6% | % growth at 10 µM ([29]; Homo sapiens): 98.6% | % growth at 10 µM ([30]; Homo sapiens): 98.9% | activity at 10 µM [31, 60]: 101% | % growth at 10 µM ([32]; Homo sapiens): 107% | % cell growth at 10 µM ([33]; Homo sapiens): 104% | activity at 10 µM [34, 60]: 101% | percent cell growth at 10 µM ([35]; Homo sapiens): 109% | % growth at 10 µM ([36]; Homo sapiens): 94% | activity at 10 µM ([37]; Homo sapiens, IGROV-1, one dose 10^-5 M, read-out: % growth): 102% | % growth at 10 µM ([38]; Homo sapiens): 110% | % growth at 10 µM ([39]; Homo sapiens): 102% | percent cell growth at 10 µM ([40]; Homo sapiens): 104% | % growth of cells at 10 µM ([41]; Homo sapiens): 113% | cell growth percent at 10 µM ([42]; Homo sapiens): 102% | % growth at 10 µM ([43]; Homo sapiens): 124% | % growth at 10 µM ([44]; Homo sapiens): 103% | % growth at 10 µM ([45]; Homo sapiens): 118% | % growth at 10 µM ([46]; Homo sapiens): 105% | % growth at 10 µM ([47]; Homo sapiens, CAKI-1, 48 h): 99.6% | % growth at 10 µM ([48]; Homo sapiens): 102% | % cell growth at 10 µM ([49]; Homo sapiens): 115% | % cell growth at 10 µM ([50]; Homo sapiens, UO-31, 48 h): 69.9% | percent cell growth at 10 µM ([51]; Homo sapiens): 91% | % growth at 10 µM ([52]; Homo sapiens): 109% | activity at 10 µM [53, 60]: 93.9% | % growth at 10 µM ([54]; Homo sapiens): 102% | activity at 10 µM [55, 60]: 108% | % cell growth at 10 µM ([56]; Homo sapiens): 107% | activity at 10 µM ([57]; Homo sapiens, T47D, read-out: % growth): 97.5% | percent cell growth at 10 µM ([58]; Homo sapiens): 111% | activity at 10 µM ([59]; Homo sapiens, 60 cell, 48 h, read-out: Mean % growth): 104% | activity on all 60 cancer cell lines tested (in words) [59]: weak activity
